Target: T1, human LXRβ (Homo sapiens, UniProt P55055)
T1 construct: expressed in transfected cells; host or cells: HEK293 cells (ATCC CRL-1573), transient transfection with pFA-hLXRβ/GAL4 and pUAS
T1 sequence (P55055 222-460 limits assumed): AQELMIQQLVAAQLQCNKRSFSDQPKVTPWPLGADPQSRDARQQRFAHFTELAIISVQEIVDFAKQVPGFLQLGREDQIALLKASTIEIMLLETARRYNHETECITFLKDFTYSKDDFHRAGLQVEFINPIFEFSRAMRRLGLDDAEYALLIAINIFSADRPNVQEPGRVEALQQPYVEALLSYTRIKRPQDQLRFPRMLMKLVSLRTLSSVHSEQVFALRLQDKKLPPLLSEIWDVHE
Assay: Assay for Transcriptional Activity of LXRβ (GAL4-hLXRβ LBD luciferase reporter, transient transfection)
Assay type: cell-based
Settings: HEK293 cells transfected with pFA-hLXRβ/GAL4 and pUAS, 24 hours; for Emax: fold value in comparison with the control (DMSO-treated group); for EC50: increase of transcriptional activity of LXRβ, average of three independent tests
How it was run: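 EC50 values, averaged over three independent runs, come from a four-parameter fit of 9-point half-log curves spanning 0.01–50 μM. Luciferase output was read in lysed HEK293 cells 24 h after dosing at 37 °C, following transient transfection with a GAL4-human LXRβ LBD fusion plus GAL4-responsive reporter.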

Compound | Emax [fold] | EC50 [nM]
CC(C)CS(=O)(=O)N1CC=C(c2ccc(C3CC(C(O)(C(F)(F)F)C(F)(F)F)=NN3c3ccccc3Cl)cc2)CC1 (stereo not shown) [Example 302, 1-(2-chloro-phenyl)-5-{4-[1-(2-methyl-propane-1-sulfonyl)-1,2,3,6-tetrahydropyridin-4-yl]-phenyl}-3-[di-(trifluoromethyl)-hydroxy-methyl]-4,5-dihydro-1H-pyrazole] | 45 | 849
OC(C1=NN(c2ccccc2Cl)C(c2ccc(-c3cccnc3F)cc2)C1)(C(F)(F)F)C(F)(F)F (stereo not shown) [Example 261, 1-(2-chloro-phenyl)-5-[4-(2-fluoro-pyridin-3-yl)-phenyl]-3-[di-(trifluoromethyl)-hydroxy-methyl]-4,5-dihydro-1H-pyrazole] | 54 | 699
CC(=O)c1ccccc1-c1ccc(C2CC(C(O)(C(F)(F)F)C(F)(F)F)=NN2c2ccccc2Cl)cn1 (stereo not shown) [Example 348, 5-[6-(2-acetyl-phenyl)-pyridin-3-yl]-1-(2-chloro-phenyl)-3-[di-(trifluoromethyl)-hydroxy-methyl]-4,5-dihydro-1H-pyrazole] | 45 | 991
CN(CCO)S(=O)(=O)c1cccc(-c2cccc(N3N=C(C(F)(F)C(F)(F)F)CC3c3ccc(F)cc3F)c2)c1 (stereo not shown) [Example 210, 5-(2,4-difluoro-phenyl)-1-{3′-[(2-hydroxy-ethyl)-methyl-sulfamoyl]-biphenyl-3-yl}-3-pentafluoroethyl-4,5-dihydro-1H-pyrazole] | 25 | 4470
Cc1ccc(-c2ccc(C3CC(C(O)(C(F)(F)F)C(F)(F)F)=NN3c3ccccc3Cl)cc2)cc1 (stereo not shown) [Example 250, 1-(2-chloro-phenyl)-5-(4′-methyl-biphenyl-4-yl)-3-[di-(trifluoromethyl)-hydroxy-methyl]-4,5-dihydro-1H-pyrazole] | 107 | 625
CSc1cccc(-c2ccc(C3CC(C(F)(F)C(F)(F)F)=NN3Cc3ccccc3Cl)cc2)c1 (stereo not shown) [Example 15, 1-(2-chloro-benzyl)-5-(3′-methylsulfanyl-biphenyl-4-yl)-3-pentafluoroethyl-4,5-dihydro-1H-pyrazole] | 23 | 14800
COc1ncc(-c2cccc(C3CC(C(F)(F)C(F)(F)F)=NN3c3ccc(F)cc3F)c2)cc1C=O (stereo not shown) [Example 73, 1-(2,4-difluoro-phenyl)-5-(3-(3-formyl-2-methoxy-pyridin-5-yl)-phenyl)-3-pentafluoroethyl-4,5-dihydro-1H-pyrazole] | 13 | 1070
CC(C)(C)OC(=O)N1CCN(c2ccc(C3CC(C(O)(C(F)(F)F)C(F)(F)F)=NN3c3ccccc3Cl)cn2)CC1 (stereo not shown) [Example 355, 1-(2-chloro-phenyl)-5-[6-(4-BOC-piperazin-1-yl)-pyridin-3-yl]-3-[di-(trifluoromethyl)-hydroxy-methyl]-4,5-dihydro-1H-pyrazole] | 43 | 4130
CC(C)S(=O)(=O)N1CCN(c2ccc(C3CC(C(O)(C(F)(F)F)C(F)(F)F)=NN3c3ccccc3Cl)cc2)CC1 (stereo not shown) [Example 314, 1-(2-chloro-phenyl)-5-[4-(4-isopropylsulfonyl-piperazin-1-yl)-phenyl]-3-[di-(trifluoromethyl)-hydroxy-methyl]-4,5-dihydro-1H-pyrazole] | 59 | 883
CS(=O)(=O)c1ccc(-c2cccc(C3CC(C(F)(F)C(F)(F)F)=NN3Cc3ccccc3Cl)c2)cc1 (stereo not shown) [Example 54, 1-(2-chloro-benzyl)-5-(4′-methanesulfonyl-biphenyl-3-yl)-3-pentafluoroethyl-4,5-dihydro-1H-pyrazole] | 17 | 6430
OC(C1=NN(c2ccccc2Cl)C(c2ccc(-c3cccnc3)cc2)C1)(C(F)(F)F)C(F)(F)F (stereo not shown) [Example 277, 1-(2-chloro-phenyl)-5-[4-(pyridin-3-yl)-phenyl]-3-[di-(trifluoromethyl)-hydroxy-methyl]-4,5-dihydro-1H-pyrazole] | 65 | 364

From patent publication US9376420B2 (YUHAN CORPORATION, priority 2012, dated 2016)
